Laboratory results published in PubChem BioAssay (NCI).
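Following 48 hours of exposure in 96-well plates, responses at five concentrations were used to interpolate endpoints linearly. TGI marks complete inhibition of growth.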

Key:
Assay in all cases: NCI tumour cell line growth inhibition, 48 h
A498 renal = tested on: A498 renal
HCC-2998 colon = tested on: HCC-2998 colon
LOX IMVI melanoma = tested on: LOX IMVI melanoma
OVCAR-5 ovarian = tested on: OVCAR-5 ovarian
OVCAR-8 ovarian = tested on: OVCAR-8 ovarian
RXF 393 renal = tested on: RXF 393 renal
SN12C renal = tested on: SN12C renal
NCI-H522 lung = tested on: NCI-H522 lung

| Structure (SMILES) | TGI (A498 renal) | TGI (HCC-2998 colon) | TGI (LOX IMVI melanoma) | TGI (OVCAR-5 ovarian) | TGI (OVCAR-8 ovarian) | TGI (RXF 393 renal) | TGI (SN12C renal) | TGI (NCI-H522 lung) |
| --- | --- | --- | --- | --- | --- | --- | --- | --- |
| C=CCNC(=S)OCCCCCCCCCC | 33.3 µM | 31.8 µM | 26.9 µM | 21.8 µM | 31.2 µM | 29.1 µM | 31.7 µM | – |
| O=C1c2ccccc2C2(O)Oc3cccc(O)c3C12O (centres undefined) | > 100 µM | > 100 µM | > 100 µM | > 100 µM | > 100 µM | – | > 100 µM | > 100 µM |
| COC(=O)C(=O)C(C#N)c1ccc(Cl)c(Cl)c1 (centres undefined) | – | – | > 100 µM | – | – | – | > 100 µM | > 100 µM |
| COC(=O)c1ccccc1N=Cc1ccc(N(CCC#N)S(=O)(=O)c2ccccc2)cc1 | > 100 µM | – | > 100 µM | > 100 µM | > 100 µM | > 100 µM | > 100 µM | > 100 µM |
| CCOC(=O)CN(Cc1ccccc1)Cc1c(C(=O)c2ccccc2)c2ccccc2n1C(=O)c1ccccc1 | > 100 µM | > 100 µM | > 100 µM | > 100 µM | > 100 µM | – | > 100 µM | > 100 µM |
| Oc1ccccc1C=Nc1ccccc1N=Cc1ccccc1O | – | > 100 µM | > 100 µM | – | > 100 µM | – | > 100 µM | 45.7 µM |
| Cc1cccc(N2C(=O)C(=O)C(c3nc4ccccc4s3)C(=O)C2=O)c1C | > 100 µM | > 100 µM | > 100 µM | > 100 µM | > 100 µM | – | > 100 µM | > 100 µM |
| O=C1CCC2CCOc3ccc(O)c1c32 (centres undefined) | > 100 µM | > 100 µM | – | > 100 µM | > 100 µM | > 100 µM | > 100 µM | > 100 µM |
| O=C(O/N=C1/CCCC/C1=C\c1ccccc1)c1ccc(Cl)cc1 | – | 36.2 µM | > 100 µM | > 100 µM | > 100 µM | > 100 µM | > 100 µM | > 100 µM |
| CCCCCCCCCC(=O)N[C@H]1CCc2cc(OC)c(OC)c(OC)c2-c2ccc(SC)c(=O)cc21 | 0.0596 µM | 0.0563 µM | – | > 100 µM | – | 0.0551 µM | 19.6 µM | – |
| O=c1c2cccnc2ncn1CCCN1CCOCC1 | – | > 100 µM | > 100 µM | > 100 µM | > 100 µM | > 100 µM | > 100 µM | > 100 µM |
| N#Cc1nc(Nc2ccc([N+](=O)[O-])cc2)sc1N | > 100 µM | 33.1 µM | 28.6 µM | > 100 µM | > 100 µM | – | > 74.6 µM | 32.1 µM |
| CCOC(=O)C1(C(=O)OCC)CC=C(C)CC12C(=O)Nc1ccccc12 (centres undefined) | > 100 µM | > 100 µM | > 100 µM | > 100 µM | > 100 µM | – | > 100 µM | > 100 µM |
| CC1=C(c2cc(C(=O)Nc3cccc(C(F)(F)F)c3)nc(NC#N)n2)Sc2ccccc2N1 | > 100 µM | > 100 µM | > 100 µM | > 100 µM | – | > 100 µM | > 100 µM | – |
| CC(C)(C)C(=O)OCC(COC(=O)C(C)(C)C)[N+](=O)[O-] | – | > 100 µM | > 100 µM | > 100 µM | > 100 µM | > 100 µM | > 100 µM | 47.3 µM |
| COc1ccc(N2C(=O)C3c4[nH]c5ccccc5c4C4CCC(C(C)(C)C)CC4C3C2=O)cc1OC (centres undefined) | 41.4 µM | > 100 µM | – | – | 33.9 µM | 29.7 µM | 48.5 µM | 33.4 µM |
| O=C1CCC(=O)C12CCc1cccc(O)c12 | – | > 100 µM | > 100 µM | – | > 100 µM | > 100 µM | > 100 µM | – |
| COC1(OC)c2ccccc2C2(O)c3ccccc3C(=O)C12 (centres undefined) | – | > 100 µM | > 100 µM | > 100 µM | > 100 µM | > 100 µM | > 100 µM | 47 µM |
| Cn1cnc([N+](=O)[O-])c1Sc1nnc(C(F)(F)F)n1C | > 100 µM | > 100 µM | 30.5 µM | > 100 µM | 67.8 µM | – | > 100 µM | 23.9 µM |
| COc1ccc(/C=C/C(C(=O)O)C(=O)O)cc1 | – | > 100 µM | 39.5 µM | > 100 µM | > 100 µM | – | > 100 µM | > 100 µM |
| CCc1cccc(C(C)CC)c1NC(=O)CC1C(=O)Nc2ccccc2S1=O (centres undefined) | > 100 µM | > 100 µM | 73.7 µM | > 100 µM | > 100 µM | 46.1 µM | > 100 µM | – |
| CN(C)CCNC(=O)c1cccc2c1nc(-c1ccccn1)c1ccccc12 | 27.2 µM | 32.4 µM | – | 38.1 µM | 34.5 µM | 29.2 µM | > 100 µM | – |
| COc1ccc(S(=O)(=O)N/N=C(\C)CN2C(=O)c3ccccc3C2=O)cc1 | > 100 µM | > 100 µM | > 100 µM | > 100 µM | > 100 µM | – | > 100 µM | > 100 µM |
| CC1(CO)C(=O)OC12CCCCC2 (centres undefined) | > 100 µM | > 100 µM | > 100 µM | – | > 100 µM | – | > 100 µM | > 100 µM |
| COc1ccc(CCC2NCCc3cc(OC)c(OC)cc32)cc1 (centres undefined) | > 100 µM | > 100 µM | – | > 100 µM | > 100 µM | – | > 100 µM | > 100 µM |
